According to ChEMBL document CHEMBL1201862, “PubChem BioAssay data set” (2004):
Calls of active or inactive are those of the source.

Columns and labels:
[1] = biological target: Cytochrome P450 2D6 (Homo sapiens, UniProt P10635);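 note: CYP2D6 member of a cytochrome P450 panel assay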
[2] = viability of PTEN-deleted HCT116 cells – cell-based, HCT116 PTEN knockout, dose response (AID 1047); assay type: functional;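 note: HCT116 colon tumor cells with PTEN knocked out; cells exposed to compound for 60 hours before readout; potency for loss of cell viability measured by luminescence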
[3] = viability of HCT116 lacking mutant beta-catenin – cell-based, human colon tumor, dose response (AID 1045); assay type: functional;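 note: HCT116 colon tumor cells with beta catenin knocked out; cells exposed to compound for 60 hours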
[4] = biological target: Cytochrome P450 2C19 (Homo sapiens, UniProt P33261); assay: Cytochrome panel assay with activity outcomes. Panel member name: p450-cyp2c19 Compounds with AC50 equal or less than 10 uM are considered active; assay type: functional
Cytochrome P450 2C19, sequence (P33261 whole entry): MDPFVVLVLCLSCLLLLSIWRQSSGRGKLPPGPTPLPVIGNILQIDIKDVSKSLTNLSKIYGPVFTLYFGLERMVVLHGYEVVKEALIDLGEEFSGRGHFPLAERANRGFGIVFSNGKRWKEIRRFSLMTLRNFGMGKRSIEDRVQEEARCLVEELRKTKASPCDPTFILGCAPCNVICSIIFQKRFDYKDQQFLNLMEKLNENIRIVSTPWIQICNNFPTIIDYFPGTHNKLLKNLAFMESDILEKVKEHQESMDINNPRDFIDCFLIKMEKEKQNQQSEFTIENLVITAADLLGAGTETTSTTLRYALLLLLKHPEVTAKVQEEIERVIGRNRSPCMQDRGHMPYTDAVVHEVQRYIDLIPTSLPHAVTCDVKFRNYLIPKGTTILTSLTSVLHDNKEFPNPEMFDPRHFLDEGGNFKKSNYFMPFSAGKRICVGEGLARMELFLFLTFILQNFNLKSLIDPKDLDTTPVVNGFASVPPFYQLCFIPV

[5] = biological target: Cytochrome P450 2C9 (Homo sapiens, UniProt P11712)
Cytochrome P450 2C9, sequence (P11712 whole entry): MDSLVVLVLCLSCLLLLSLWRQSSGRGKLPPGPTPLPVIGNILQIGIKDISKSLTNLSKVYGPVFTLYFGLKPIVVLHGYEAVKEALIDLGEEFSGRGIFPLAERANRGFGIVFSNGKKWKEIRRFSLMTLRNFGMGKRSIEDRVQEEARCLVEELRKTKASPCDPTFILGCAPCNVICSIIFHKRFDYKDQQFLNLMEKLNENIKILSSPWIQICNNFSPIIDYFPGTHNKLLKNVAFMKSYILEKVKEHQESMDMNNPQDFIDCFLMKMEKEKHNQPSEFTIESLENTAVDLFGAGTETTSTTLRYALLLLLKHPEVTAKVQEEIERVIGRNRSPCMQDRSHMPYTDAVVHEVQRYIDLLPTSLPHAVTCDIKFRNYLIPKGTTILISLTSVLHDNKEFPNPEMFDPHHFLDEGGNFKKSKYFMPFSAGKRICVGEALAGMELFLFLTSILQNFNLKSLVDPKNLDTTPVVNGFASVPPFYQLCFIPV

[6] = system: Streptococcus sp. 'group A'; assay: Streptococcus pyogenes SK(-)GAS viability under kanamycin – luminescence, BacTiterGlo, confirmation, counter-screen for streptokinase expression inhibitor project, dose response (AID 1900); assay type: functional, organism-based
[7] = biological target: T1, Streptokinase A (Streptococcus pyogenes serotype M1, UniProt P10520); assay: viability-normalized secreted streptokinase activity reduction – plasminogen activation absorbance, OD405, dose response (AID 1914); assay type: functional, Streptococcus pyogenes M1 GAS;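 note: secreted streptokinase activity via plasminogen activation per viability signal from cell pellet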
T1 sequence (P10520 whole entry): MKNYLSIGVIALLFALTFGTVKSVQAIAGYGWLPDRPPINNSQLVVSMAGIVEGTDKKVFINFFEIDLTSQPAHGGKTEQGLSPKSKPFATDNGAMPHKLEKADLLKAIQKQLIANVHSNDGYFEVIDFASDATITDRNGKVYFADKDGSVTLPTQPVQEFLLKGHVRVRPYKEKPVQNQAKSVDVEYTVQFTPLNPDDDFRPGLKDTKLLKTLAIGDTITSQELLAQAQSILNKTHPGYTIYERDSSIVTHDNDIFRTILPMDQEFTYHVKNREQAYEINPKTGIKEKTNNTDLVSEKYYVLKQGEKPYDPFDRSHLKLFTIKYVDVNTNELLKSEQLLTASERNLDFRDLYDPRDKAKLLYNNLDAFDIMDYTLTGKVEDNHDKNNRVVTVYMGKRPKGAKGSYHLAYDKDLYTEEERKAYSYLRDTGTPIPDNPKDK

[8] = system: Streptococcus; assay: GAS UMAA2166 growth inhibition – luminescence, BacTiterGlo, counter-screen for streptokinase expression inhibitor project, dose response (AID 1915); assay type: functional, organism-based;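 note: potency for reduction of bacterial viability or growth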
[9] = Luminescence Cell-Based Dose Retest to Confirm Inhibitors of Cancer Stem Cells. [Related pubchem assays (depositor defined):AID2717, AID2721]; assay type: functional; conditions: Homo sapiens
[10] = biological target: T2, Cytochrome P450 1A2 (Homo sapiens, UniProt P05177);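 note: PubChem cytochrome P450 panel assay, CYP1A2 panel member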
T2 sequence (P05177 whole entry): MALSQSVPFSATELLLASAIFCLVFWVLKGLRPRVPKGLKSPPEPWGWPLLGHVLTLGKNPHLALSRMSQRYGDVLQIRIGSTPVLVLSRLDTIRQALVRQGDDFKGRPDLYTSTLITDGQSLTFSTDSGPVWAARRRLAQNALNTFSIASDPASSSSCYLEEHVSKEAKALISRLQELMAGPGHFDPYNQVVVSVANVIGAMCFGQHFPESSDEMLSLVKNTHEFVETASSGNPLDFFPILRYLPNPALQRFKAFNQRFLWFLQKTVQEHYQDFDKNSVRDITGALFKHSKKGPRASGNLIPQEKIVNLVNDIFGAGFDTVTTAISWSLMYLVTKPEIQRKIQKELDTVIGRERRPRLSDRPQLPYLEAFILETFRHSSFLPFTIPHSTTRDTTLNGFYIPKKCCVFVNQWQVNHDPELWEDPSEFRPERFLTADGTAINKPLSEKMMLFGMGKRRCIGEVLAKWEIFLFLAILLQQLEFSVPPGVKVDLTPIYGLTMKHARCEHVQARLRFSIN

[11] = Luminescence Cell-Based Dose Response HTS to Identify Activators of Luciferase Translation or Activity in H4 […] Cells. [Related pubchem assays: 1829 (Project Summary), 1814 (Primary HTS)]; assay type: functional
[12] = system: INS1; assay: INS-1E survival protection against cytokine death – cell-based, luminescence, retest, dose response (AID 449756); assay type: functional; conditions: Rattus norvegicus;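 note: cell death triggered by IL-1 beta plus TNF-alpha plus IFN-gamma mixture; protective hits raise ATP signal compared with cytokine alone wells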
[13] = system: H4; assay: Luminescence Cell-Based Dose Response HTS to Identify Activators of 5'UTR Stem-Loop Driven Prion Protein mRNA Translation in H4 Neuroglioblastoma Cells. [Related pubchem assays: 1829 (Project Summary), 1814 (Primary HTS)]; assay type: functional; conditions: Homo sapiens

Cytochrome P450 2D6, sequence (P10635 whole entry): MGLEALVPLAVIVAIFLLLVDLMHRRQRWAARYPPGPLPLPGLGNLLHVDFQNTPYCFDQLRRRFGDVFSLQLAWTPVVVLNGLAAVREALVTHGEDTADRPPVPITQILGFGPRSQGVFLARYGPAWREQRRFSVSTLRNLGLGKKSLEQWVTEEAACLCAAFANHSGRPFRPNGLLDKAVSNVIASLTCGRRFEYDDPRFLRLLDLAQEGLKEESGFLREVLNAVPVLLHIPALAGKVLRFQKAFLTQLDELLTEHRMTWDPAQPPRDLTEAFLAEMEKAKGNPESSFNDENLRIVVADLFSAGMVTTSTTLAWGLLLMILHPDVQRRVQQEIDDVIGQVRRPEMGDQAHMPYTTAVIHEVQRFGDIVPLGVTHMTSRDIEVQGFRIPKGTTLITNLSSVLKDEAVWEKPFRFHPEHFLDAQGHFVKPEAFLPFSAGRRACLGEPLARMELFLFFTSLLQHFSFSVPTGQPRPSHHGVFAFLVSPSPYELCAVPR

SMILES: Cc1cc(F)ccc1S(=O)(=O)Nc1ccccc1C(=O)Nc1ccccc1N1CCOCC1
- AC50 [1]: 15.8 µM (inconclusive)

SMILES: CN1C(=O)C(O)(CC(=O)c2ccccc2O)c2cc(Br)ccc21 (configuration not stated)
- EC50 [2]: 18 µM (active)
- EC50 [3]: 17 µM (active)

SMILES: CC(C)(C)c1c2c(c(C(C)(C)C)c3c1OCN(Cc1ccccc1)C3)OCN(Cc1ccccc1)C2
- AC50 [4]: inconclusive

SMILES: CCC(c1nnnn1Cc1ccco1)N(CCc1ccccc1)Cc1cc2ccc(OC)cc2nc1O (configuration not stated)
- EC50 [2]: 22.8 µM (active)
- EC50 [3]: 23.6 µM (active)

SMILES: CN(Cc1ccco1)c1ncncc1-c1cccc(NS(C)(=O)=O)c1
- AC50 [1]: 20 µM (inconclusive)
- AC50 [5]: 0.501 µM (inconclusive)

SMILES: C=C(C)COc1ccc(-c2nc(N)ncc2-c2ccc(Cl)cc2)c(O)c1
- EC50 [6]: 6.33 µM (active)
- EC50 [7]: > 150 µM (not active)
- EC50 [8]: 8.12 µM (active)
- AC50 [9]: 3.57 µM (active)

SMILES: c1ccc(C(c2ccccc2)N2CCC3(CCNCC3)CC2)cc1
- AC50 [5]: 31.6 µM (inconclusive)

SMILES: O=C(CN1CCCCC1)Nc1ccc(Br)cc1C(=O)c1ccccc1Cl
- AC50 [1]: 11.2 µM (inconclusive)

SMILES: Cc1c(Br)c([N+](=O)[O-])nn1CC(=O)NCc1cccs1
- AC50 ([4]; read-out: AC50): 5.01 µM (inconclusive)
- AC50 [1]: 5.01 µM (inconclusive)
- AC50 [10]: 14.1 µM (inconclusive)

SMILES: O=c1c(-c2cc(F)cc(F)c2)nc2cnc(N3CCNCC3)nc2n1C1CC1
- AC50 ([4]; read-out: AC50): 20 µM (inconclusive)

SMILES: Clc1ccc([C@@H](OCCN2CCCCC2)c2ccccc2)cc1
- AC50 ([4]; read-out: AC50): 6.31 µM (inconclusive)
- AC50 [10]: 12.6 µM (inconclusive)

SMILES: CC(C)OC(=O)C(C#N)c1nc2ccccc2nc1N1CCN(Cc2ccccc2)CC1 (configuration not stated)
- AC50 [1]: 0.112 µM (inconclusive)

SMILES: O=C(CCn1nc(-c2ccc(Cl)cc2)ccc1=O)NCc1ccccn1
- AC50 [10]: 15.8 µM (inconclusive)
- AC50 [5]: 5.01 µM (inconclusive)

SMILES: Cc1ccc(-n2c(CCC(=O)O)ccc2-c2cccs2)cc1C
- AC50 [5]: 7.08 µM (inconclusive)

SMILES: O=c1c(-c2ccc(F)c(F)c2)nc2cncnc2n1Cc1ccccc1
- AC50 ([4]; read-out: AC50): 0.0501 µM (inconclusive)

SMILES: COc1ccc(CCNC(=O)CCN2C(=O)C(C)Oc3ccc(C)cc32)cc1OC (configuration not stated)
- AC50 [5]: 5.62 µM (inconclusive)

SMILES: COC(=O)[C@@]1(Cc2ccc(OC)cc2)[C@H]2c3cc(C(=O)N(C)C)[nH]c3C[C@H]2CN1C(=O)c1ccccc1
- AC50 [10]: 20 µM (inconclusive)

SMILES: Cc1noc(C)c1C(=O)N1CCC2(CCCN(CC(C)C)C2)CC1
- AC50 ([4]; read-out: AC50): 39.8 µM (inconclusive)
- AC50 [5]: 39.8 µM (inconclusive)

SMILES: Cc1cccn2c(/C=N/OCc3ccc(F)cc3)c(-c3ccc(Cl)cc3)nc12
- AC50 ([4]; read-out: AC50): 3.16 µM (inconclusive)

SMILES: CCCCSc1ncc(C(=O)OCC)c(N)n1
- EC50 [11]: 0.125 µM (active)

SMILES: CC(=O)OC[C@@H]1O[C@@H](O/N=C2/C[C@@H](O)[C@@H](O)[C@@H]3[C@@H]4C(=O)N(C[C@@H]5CCCO5)C(=O)[C@H]4CC[C@H]23)[C@H](OC(C)=O)[C@H](OC(C)=O)[C@@H]1OC(C)=O
- AC50 [1]: 5.01 µM (inconclusive)

SMILES: CCc1c(C2(O)CCCCC2)[nH]c2cc(C(F)(F)F)ccc12
- AC50 [9]: 2.64 µM (active)
- AC50 [12]: 7.52 µM (active)

SMILES: COc1ncc2nc(-c3cccs3)c(=O)n(CCc3ccccc3)c2n1
- AC50 ([4]; read-out: AC50): 2.51 µM (inconclusive)

SMILES: C[C@H]1[C@H](C)CC[C@]2(C)CC[C@]3(C)C(=CC(=O)C4[C@@]5(C)CC[C@H](O)C(C)(C)C5CC[C@]43C)[C@H]12 (some centres not stated)
- AC50 [9]: 4.76 µM (active)

SMILES: O=C(c1cc(O)nc2ccc(Br)cc12)N1CCC2(CC1)OCCO2
- AC50 ([4]; read-out: AC50): 28.2 µM (inconclusive)
- AC50 [5]: 39.8 µM (inconclusive)

SMILES: c1ccc(N2CCC3(CCNCC3)CC2)cc1
- AC50 [1]: 15.8 µM (inconclusive)

SMILES: O=C1CSC(c2ccccn2)N1c1ccc(Cl)c(Cl)c1 (configuration not stated)
- AC50 [5]: 20 µM (inconclusive)

SMILES: c1ccc(-c2nnn(CCN3CCCCC3)n2)cc1
- AC50 [1]: 3.16 µM (inconclusive)
- AC50 [10]: 5.01 µM (inconclusive)

SMILES: CCc1c(C)nc2ccc(Br)cc2c1Cl
- AC50 [5]: 11.2 µM (inconclusive)

SMILES: COCCNC(=O)COc1ccc(Oc2ccccc2)cc1
- AC50 [10]: 25.1 µM (inconclusive)

SMILES: CNC(C)c1cc(OC)ccc1OC (configuration not stated)
- AC50 [1]: 25.1 µM (inconclusive)

SMILES: CCc1ccccc1NC(=O)c1ccc(F)c(S(=O)(=O)N2CCC(C(N)=O)CC2)c1
- AC50 ([4]; read-out: AC50): 31.6 µM (inconclusive)
- AC50 [5]: 25.1 µM (inconclusive)

SMILES: N#Cc1cccc(-c2nc3cnc(N4CCOCC4)nc3n(C[C@H]3CCCO3)c2=O)c1
- AC50 [10]: 0.794 µM (inconclusive)

SMILES: COCCn1c(=O)c(CCc2ccccc2)nc2cnc(N(C)C)nc21
- AC50 [1]: 10 µM (inconclusive)
- AC50 [5]: 25.1 µM (inconclusive)

SMILES: COc1ccccc1-c1cncnc1Nc1ccc(F)cc1
- AC50 [1]: 15.8 µM (inconclusive)

SMILES: N#CCCn1c(=O)c(-c2ccc(Cl)cc2)nc2cnc(Oc3ccccc3)nc21
- AC50 [10]: 0.501 µM (inconclusive)

SMILES: COCCn1c(=O)c(-c2cn(C)c3ccccc23)nc2cnc(Oc3ccccc3)nc21
- AC50 [10]: 10 µM (inconclusive)

SMILES: CCOC(=O)c1[nH]c(C)c(C(=O)OCC(=O)N2c3ccccc3CC2C)c1C (configuration not stated)
- AC50 [10]: 12.6 µM (inconclusive)

SMILES: O=C1N(c2ccccc2)c2ccccc2C1(Cc1ccncc1)Cc1ccncc1 [LINOPIRDINE]
- AC50 [10]: 31.6 µM (inconclusive)

SMILES: CCCc1cc(COC)c(C#N)c(O)n1
- AC50 [10]: 6.31 µM (inconclusive)

SMILES: CCOc1ccc(NC(=O)CN2CCN(S(=O)(=O)c3ccc(Cl)cc3)CC2)cc1
- AC50 ([4]; read-out: AC50): 0.562 µM (inconclusive)
- AC50 [5]: 2 µM (inconclusive)

SMILES: COc1ccc2cc3cc(C(=O)Nc4ccc5c(c4)OCO5)oc3nc2c1
- AC50 [5]: 5.01 µM (inconclusive)

SMILES: CCCC[C@@H]1C[C@H]1C(NC(=O)c1ccc(C(F)(F)F)cc1)c1ccc(C(=O)OC)cc1 (some centres not stated)
- AC50 [10]: 15.8 µM (inconclusive)

SMILES: Cc1ccc(S[C@@H](CCN2CC[C@H](C(C)(C)C)CCC2=O)c2ccccc2)cc1
- AC50 [9]: 2.64 µM (active)

SMILES: O=C(CSCc1cccc(Cl)c1)Nc1ccccc1-c1ccccc1
- AC50 [9]: 21.7 µM (active)

SMILES: N#CCCn1c(=O)c(-c2cccc(C#N)c2)nc2cnc(Oc3ccccc3)nc21
- AC50 [10]: 20 µM (inconclusive)
- AC50 [5]: 39.8 µM (inconclusive)

SMILES: O=C(CSc1nnc(-c2ccccn2)o1)Nc1cccc(Cl)c1
- EC50 [11]: 4.83 µM (active)
- EC50 [13]: > 120 µM (not active)

SMILES: O=C(O)c1ccccc1/C=N\N=C1c2ccccc2-c2ccccc21
- AC50 [5]: 7.94 µM (inconclusive)

SMILES: CN(Cc1ccco1)c1ncncc1-c1cccc(C#N)c1
- AC50 [10]: 12.6 µM (inconclusive)

SMILES: c1cnc(Nc2nc(-c3ccc4ccccc4c3)cs2)nc1
- AC50 [4]: inconclusive

SMILES: COc1ccccc1CNS(=O)(=O)c1ccc2ncc(C(=O)O)c(O)c2c1
- AC50 [10]: 10 µM (inconclusive)
- AC50 [5]: 11.2 µM (inconclusive)

SMILES: Cc1ccc(C2NC(c3ccc(C)cc3)C(C)C(=NO)C2C)cc1 (configuration not stated)
- AC50 [10]: 15.8 µM (inconclusive)
